Assay results from patent US10875851B2, “Factor XIIa inhibitors” (Merck Sharp & Dohme Corp., priority 2016, dated 2020).

Biological target: human Factor XIIa (Homo sapiens (Human), UniProt P00748)
Assay: Factor XIIa Assay
Format: biochemical
Details: purified human Factor XIIa 500 pM; substrate n-Acetyl-Lys-Pro-Arg-AFC 100 μM; pH 7.4; read-out: FXIIa IC50
How it was run: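 Purified human FXIIa at 500 pM final with 100 μM n-Acetyl-Lys-Pro-Arg-AFC in 50 mM HEPES, 150 mM NaCl, 5 mM CaCl2, 0.1% PEG 8000, pH 7.4, at room temperature or 37° C. Initial fluorogenic hydrolysis rates measured after enzyme–inhibitor equilibration; IC50 taken where Vi=Vo/2.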

human Factor XIIa, sequence (P00748 373-615): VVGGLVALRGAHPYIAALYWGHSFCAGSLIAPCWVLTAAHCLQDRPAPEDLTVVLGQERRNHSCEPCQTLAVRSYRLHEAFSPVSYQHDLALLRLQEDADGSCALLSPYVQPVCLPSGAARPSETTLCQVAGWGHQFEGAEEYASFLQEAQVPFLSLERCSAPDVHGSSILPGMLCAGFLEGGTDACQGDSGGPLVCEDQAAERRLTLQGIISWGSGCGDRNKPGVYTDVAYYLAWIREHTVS

Compound	IC50 [nM]
COc1cc(CNC(=O)[C@@H]2CN(C(=O)Oc3ccc4ccccc4c3Cl)CCN2C(=O)[C@H](N)CCCCN(C)C)ccc1CN [Example 89, 1-chloronaphthalen-2-yl (3S)-3-{[4-(aminomethyl)-3-methoxybenzyl]carbamoyl}-4-(N^6,N^6-dimethyl-D-lysyl)piperazine-1-carboxylate]	1.7
C[C@@H]1N=C(N2CCN(C(=O)[C@@H](CCCCN(C)C)NC3CCC(CN)CC3)[C@H](C(=O)NCc3cccs3)C2)O[C@H]1c1ccccc1 (stereo partly drawn) [Example 133, (2S)-1-{N^2-[4-(aminomethyl)cyclohexyl]-N^6,N^6-dimethyl-D-lysyl}-4-[(4S,5S)-4-methyl-5-phenyl-4,5-dihydro-1,3-oxazol-2-yl]-N-(thiophen-2-ylmethyl)piperazine-2-carboxamide]	6.6
CS(=O)(=O)N1CCC([C@@H](NC2CCCCC2)C(=O)N2CCN(C(=O)Oc3ccccc3Cl)C[C@H]2C(=O)NCc2cccs2)CC1 [Example 42, 2-chlorophenyl (3S)-4-{(2R)-2-(cyclohexylamino)-2-[1-(methylsulfonyl)piperidin-4-yl]acetyl}-3-[(thiophen-2-ylmethyl)carbamoyl]piperazine-1-carboxylate]	6
Cc1cccc([C@@H]2OC(N3CCN(C(=O)[C@@H](CCCCNS(C)(=O)=O)NC4CCCCC4)[C@H](C(=O)NCc4cccs4)C3)=N[C@H]2C)c1 [Example 134, (2S)-1-[N^2-cyclohexyl-N^6-(methylsulfonyl)-D-lysyl]-4-[(4S,5S)-4-methyl-5-(3-methylphenyl)-4,5-dihydro-1,3-oxazol-2-yl]-N-(thiophen-2-ylmethyl)piperazine-2-carboxamide]	10.3
CC(C)N[C@H](CCCCN1CCCCC1)C(=O)N1CCN(C2=N[C@@H](C)[C@H](c3ccccc3)O2)C[C@H]1C(=O)NCc1ccc(CN)c(Cl)c1 [Example 179, (2S)-N-[4-(aminomethyl)-3-chlorobenzyl]-1-[N-(1-methylethyl)-6-piperidin-1-yl-D-norleucyl]-4-[(4S,5S)-4-methyl-5-phenyl-4,5-dihydro-1,3-oxazol-2-yl]piperazine-2-carboxamide]	1.7
C[C@H]1N=C(N2CCN(C(=O)[C@@H](CCCCNS(C)(=O)=O)NC3CCCCC3)[C@H](C(=O)NCc3cccs3)C2)O[C@H]1c1ccccc1 [Example 122, (2S)-1-[N^2-cyclohexyl-N^6-(methylsulfonyl)-D-lysyl]-4-[(4R,5S)-4-methyl-5-phenyl-4,5-dihydro-1,3-oxazol-2-yl]-N-(thiophen-2-ylmethyl)piperazine-2-carboxamide]	13.5
C[C@@H]1N=C(N2CCN(C(=O)[C@@H](CC3CCN(C4CCCCC4)CC3)NC3CCCCC3)[C@H](C(=O)NCc3cccs3)C2)O[C@H]1c1ccccc1 [Example 183, (2S)-[N-cyclohexyl-3-(1-cyclohexylpiperidin-4-yl)-D-alanyl]-4-[(4S,5S)-4-methyl-5-phenyl-4,5-dihydro-1,3-oxazol-2-yl]-N-(thiophen-2-ylmethyl)piperazine-2-carboxamide]	2.4
CN(C)CCCC[C@H](C(=O)N1CCN(C2=NC(C)(C)C(c3ccccc3)O2)C[C@H]1C(=O)NCc1cc2cnccc2s1)N(C)C (stereo partly drawn) [Example 147, (2S)-4-(4,4-dimethyl-5-phenyl-4,5-dihydro-1,3-oxazol-2-yl)-1-(N^2,N^2,N^6,N^6-tetramethyl-D-lysyl)-N-(thieno[3,2-c]pyridin-2-ylmethyl)piperazine-2-carboxamide]	44.1
COc1cc(CNC(=O)[C@@H]2CN(C3=N[C@@H](C)[C@H](c4ccccc4)O3)CCN2C(=O)[C@@H](CCCCN2CCCCC2)NC(C)C)ccc1CN [Example 118, (2S)-N-[4-(aminomethyl)-3-methoxybenzyl]-1-[N-(1-methylethyl)-6-piperidin-1-yl-D-norleucyl]-4-[(4S,5S)-4-methyl-5-phenyl-4,5-dihydro-1,3-oxazol-2-yl]piperazine-2-carboxamide]	8.1
CN(C)CCCC[C@H](C(=O)N1CCN(C2=NC(C)(C)C(c3ccccc3)O2)C[C@H]1C(=O)NCc1ccc(CN)c(F)c1)N(C)C (stereo partly drawn) [Example 148, (2S)-N-[4-(aminomethyl)-3-fluorobenzyl]-4-(4,4-dimethyl-5-phenyl-4,5-dihydro-1,3-oxazol-2-yl)-1-(N^2,N^2,N^6,N^6-tetramethyl-D-lysyl)piperazine-2-carboxamide]	12.7
COc1cc(CNC(=O)[C@@H]2CN(C(=O)Oc3ccc4ccccc4c3Cl)CCN2C(=O)[C@@H](CCCCNS(C)(=O)=O)NC2CCC3(CC2)CCN(Cc2ccccc2)C3)ccc1CN (stereo partly drawn) [Example 74, 1-chloronaphthalen-2-yl (3S)-3-{[4-(aminomethyl)-3-methoxybenzyl]carbamoyl}-4-[N^2-(2-benzyl-2-azaspiro[4.5]dec-8-yl)-N^6-(methylsulfonyl)-D-lysyl]piperazine-1-carboxylate]	3.7
CC(C)N[C@H](CCCCN1CCCCC1)C(=O)N1CCN(C2=NC(C)(C)C(c3ccccc3)O2)C[C@H]1C(=O)NCc1cccc(Cl)c1 (stereo partly drawn) [Example 160, (2S)-N-(3-chlorobenzyl)-4-(4,4-dimethyl-5-phenyl-4,5-dihydro-1,3-oxazol-2-yl)-1-[N-(1-methylethyl)-6-piperidin-1-yl-D-norleucyl]piperazine-2-carboxamide]	13.8
COc1cc(CNC(=O)[C@@H]2CN(C3=NC(C)(C)[C@H](c4ccccc4)O3)CCN2C(=O)[C@@H](CCCCN(C)C)N(C)C)ccc1CN [Example 153, (2S)-N-[4-(aminomethyl)-3-methoxybenzyl]-4-[(5S)-4,4-dimethyl-5-phenyl-4,5-dihydro-1,3-oxazol-2-yl]-1-(N^2,N^2,N^6,N^6-tetramethyl-D-lysyl)piperazine-2-carboxamide]	7.4
COc1cc(CNC(=O)[C@@H]2CN(C(=O)Oc3ccccc3Cl)CCN2C(=O)[C@@H](CCCCNS(C)(=O)=O)NC2CCC3(CC2)CCN(Cc2ccccc2)C3)ccc1CN (stereo partly drawn) [Example 85, 2-chlorophenyl (3S)-3-{[4-(aminomethyl)-3-methoxybenzyl]carbamoyl}-4-[N^2-(2-benzyl-2-azaspiro[4.5]dec-8-yl)-N^6-(methylsulfonyl)-D-lysyl]piperazine-1-carboxylate]	8.3
COc1cc(CNC(=O)[C@@H]2CN(C3=NC(C)(C)[C@H](c4ccccc4)O3)CCN2C(=O)[C@@H](CCCCN(C)C)N(C)C)ccc1C(N)=O [Example 154, (2S)-N-(4-carbamoyl-3-methoxybenzyl)-4-[(5S)-4,4-dimethyl-5-phenyl-4,5-dihydro-1,3-oxazol-2-yl]-1-(N^2,N^2,N^6,N^6-tetramethyl-D-lysyl)piperazine-2-carboxamide]	12.4
C[C@@H]1N=C(N2CCN(C(=O)[C@@H](CCCCNS(C)(=O)=O)NC3CCCCC3)[C@H](C(=O)NCc3cccs3)C2)O[C@@H]1c1ccccc1 [Example 152, (2S)-1-[N^2-cyclohexyl-N^6-(methylsulfonyl)-D-lysyl]-4-[(4S,5R)-4-methyl-5-phenyl-4,5-dihydro-1,3-oxazol-2-yl]-N-(thiophen-2-ylmethyl)piperazine-2-carboxamide]	34.2
C[C@@H]1N=C(N2CCN(C(=O)[C@H](NC3CCC(C(N)=O)CC3)[C@H]3CC[C@H](N4CCCCC4)CC3)[C@H](C(=O)NCc3cccs3)C2)O[C@H]1c1ccccc1 (stereo partly drawn) [Example 119, (2S)-1-[(2R)-2-[(4-carbamoylcyclohexyl)amino]-2-(trans-4-piperidin-1-ylcyclohexyl)acetyl]-4-[(4S,5S)-4-methyl-5-phenyl-4,5-dihydro-1,3-oxazol-2-yl]-N-(thiophen-2-ylmethyl)piperazine-2-carboxamide]	1.5
Cc1ccc(OC(=O)N2CCN(C(=O)[C@@H](CC3CCCCC3)NC3CCCCC3)[C@H](C(=O)NCc3cccs3)C2)c(Cl)c1C [Example 94, 2-chloro-3,4-dimethylphenyl (3S)-4-(N,3-dicyclohexyl-D-alanyl)-3-[(thiophen-2-ylmethyl)carbamoyl]piperazine-1-carboxylate]	7.5
O=C(NCc1cccs1)[C@@H]1CN(C(=O)Oc2ccccc2Cl)CCN1C(=O)[C@H](NC1CCCCC1)C1CCN(S(=O)(=O)C2CC2)CC1 [Example 62, 2-chlorophenyl (3S)-4-{(2R)-2-(cyclohexylamino)-2-[1-(cyclopropylsulfonyl)piperidin-4-yl]acetyl}-3-[(thiophen-2-ylmethyl)carbamoyl]piperazine-1-carboxylate]	1.7
O=C(NCc1cccs1)[C@@H]1CN(C(=O)Oc2cccc3cccnc23)CCN1C(=O)[C@@H](CC1CCCCC1)NC1CCCCC1 [Example 30, quinolin-8-yl (3S)-4-(N,3-dicyclohexyl-D-alanyl)-3-[(thiophen-2-ylmethyl)carbamoyl]piperazine-1-carboxylate]	5.8
CN(C)CCCC[C@@H](NC1CCCCC1)C(=O)N1CCN(C(=O)Oc2ccccc2Cl)C[C@H]1C(=O)NCc1cccs1 [Example 73, 2-chlorophenyl (3S)-4-(N^2-cyclohexyl-N^6,N^6-dimethyl-D-lysyl)-3-[(thiophen-2-ylmethyl)carbamoyl]piperazine-1-carboxylate]	1.1
C[C@@H]1N=C(N2CCN(C(=O)[C@H](N)CCCCN3CCCCC3)[C@H](C(=O)NCc3ccc4[nH]cc(Cl)c4c3)C2)O[C@H]1c1ccccc1 [Example 162, (2S)-N-[(3-chloro-1H-indol-5-yl)methyl]-4-[(4S,5S)-4-methyl-5-phenyl-4,5-dihydro-1,3-oxazol-2-yl]-1-(6-piperidin-1-yl-D-norleucyl)piperazine-2-carboxamide]	8.4
CC1(C)N=C(N2CCN(C(=O)[C@H](N)CCCCN3CCCCC3)[C@H](C(=O)NCc3cc4cnccc4s3)C2)OC1c1ccccc1 (stereo partly drawn) [Example 158, (2S)-4-(4,4-dimethyl-5-phenyl-4,5-dihydro-1,3-oxazol-2-yl)-1-(6-piperidin-1-yl-D-norleucyl)-N-(thieno[3,2-c]pyridin-2-ylmethyl)piperazine-2-carboxamide]	54.4
